Legend:
[1] = target: MLLT1 (Homo sapiens, UniProt Q03111); test: biochemical; conditions: MLLT1 assay IC50 (nM), HTRF, 6His tagged MLLT1, biotinylated H3K9cro peptide; compound 20 μM to 20 nM, 11 data points in duplicate
[2] = target: MLLT3 (Homo sapiens, UniProt P42568); test: HTRF IC50 determination assay, MLLT3 / H3K9cro peptide displacement; conditions: MLLT3 assay IC50 (nM), 6His tagged MLLT3, biotinylated H3K9cro peptide, compound 20 μM to 20 nM, 11 data points in duplicate
Chain of MLLT3 (P42568 whole entry): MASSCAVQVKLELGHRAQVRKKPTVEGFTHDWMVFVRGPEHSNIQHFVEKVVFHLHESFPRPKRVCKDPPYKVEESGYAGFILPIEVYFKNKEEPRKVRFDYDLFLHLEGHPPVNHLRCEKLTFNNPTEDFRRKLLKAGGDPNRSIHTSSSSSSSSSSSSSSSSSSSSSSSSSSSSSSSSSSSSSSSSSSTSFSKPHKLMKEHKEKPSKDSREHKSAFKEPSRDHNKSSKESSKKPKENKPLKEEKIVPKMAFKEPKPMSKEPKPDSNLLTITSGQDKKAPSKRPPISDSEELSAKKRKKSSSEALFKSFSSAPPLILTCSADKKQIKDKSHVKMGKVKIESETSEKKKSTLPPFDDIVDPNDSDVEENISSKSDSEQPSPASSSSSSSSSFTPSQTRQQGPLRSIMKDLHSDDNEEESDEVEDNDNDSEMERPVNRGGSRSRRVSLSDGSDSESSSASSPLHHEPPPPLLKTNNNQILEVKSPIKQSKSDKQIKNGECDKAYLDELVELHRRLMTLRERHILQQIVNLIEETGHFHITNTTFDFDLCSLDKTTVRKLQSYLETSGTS

Chain of MLLT1 (Q03111 whole entry): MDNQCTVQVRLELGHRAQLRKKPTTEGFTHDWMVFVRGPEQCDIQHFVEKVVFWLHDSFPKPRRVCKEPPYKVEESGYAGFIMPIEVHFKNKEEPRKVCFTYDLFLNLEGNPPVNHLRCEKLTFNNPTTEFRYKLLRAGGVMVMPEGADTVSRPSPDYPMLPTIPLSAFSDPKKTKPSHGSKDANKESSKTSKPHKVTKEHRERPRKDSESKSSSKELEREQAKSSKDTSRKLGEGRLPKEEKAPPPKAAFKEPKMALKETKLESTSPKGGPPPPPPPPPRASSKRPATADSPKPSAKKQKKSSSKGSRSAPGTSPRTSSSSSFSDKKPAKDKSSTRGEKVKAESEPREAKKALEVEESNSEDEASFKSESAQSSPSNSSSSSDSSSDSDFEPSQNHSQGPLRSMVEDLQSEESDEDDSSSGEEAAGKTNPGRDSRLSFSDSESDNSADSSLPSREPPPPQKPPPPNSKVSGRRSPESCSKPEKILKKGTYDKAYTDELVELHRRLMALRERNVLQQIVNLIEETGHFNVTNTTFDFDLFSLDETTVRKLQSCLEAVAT

IC50 [1] | IC50 [2] | Compound
150 to 1500 nM | 1500 to 20000 nM | CN1CCCC1c1cn2cc(NC(=O)c3ccc(-c4cnccn4)cc3F)ccc2n1 (single isomer, unassigned) [Example 19]
150 to 1500 nM | 1500 to 20000 nM | CN1CCCC1c1cn2cc(NC(=O)c3ccc(Cn4cccn4)cc3)ccc2n1 (racemic) [Example 42, rac-N-[2-(1-methylpyrrolidin-2-yl)imidazo[1,2-a]pyridin-6-yl]-4-[(1H-pyrazol-1-yl)methyl]benzamide]
150 to 1500 nM | 150 to 1500 nM | CN1CCCC1c1cn2cc(NC(=O)c3ccc4scnc4c3)ccc2n1 (stereo not shown) [Example 41]
1500 to 20000 nM | 1500 to 20000 nM | CN1CCC[C@@H]1c1cn2cc(NC(=O)c3cc4cnn(C)c4cn3)ncc2n1 [Example 95, 1-methyl-N-{2-[(2R)-1-methylpyrrolidin-2-yl]imidazo[1,2-a]pyrazin-6-yl}pyrazolo[3,4-c]pyridine-5-carboxamide]
150 to 1500 nM | 1500 to 20000 nM | CN1CCCC1(C)c1cn2cc(NC(=O)c3ccc4c(cnn4C)c3)ccc2n1 (racemic) [Example 4, rac-N-[2-(1,2-dimethylpyrrolidin-2-yl)imidazo[1,2-a]pyridin-6-yl]-1-methylindazole-5-carboxamide]
150 to 1500 nM | 150 to 1500 nM | CN1CCCC1c1cn2cc(NC(=O)c3ccc(-c4cnn(C)c4)cc3F)ccc2n1 (single isomer, unassigned) [Example 21]
1500 to 20000 nM | 1500 to 20000 nM | CN1CCCC1c1cn2cc(NC(=O)c3ccc(-n4cccn4)nc3)ccc2n1 (racemic) [Example 13, rac-N-[2-(1-methylpyrrolidin-2-yl)imidazo[1,2-a]pyridin-6-yl]-6-(1H-pyrazol-1-yl)pyridine-3-carboxamide]
150 to 1500 nM | 150 to 1500 nM | CN1CCCC1c1cn2cc(NC(=O)c3ccc4c(cnn4C)c3)ncc2n1 (racemic) [Example 68, rac-1-methyl-N-[2-(1-methylpyrrolidin-2-yl)imidazo[1,2-a]pyrazin-6-yl]-1H-indazole-5-carboxamide]
150 to 1500 nM | 150 to 1500 nM | CN1CCCC1c1cn2cc(NC(=O)c3ccc4c(c3)nnn4C3CCCCC3)ccc2n1 (racemic) [Example 45, rac-1-cyclohexyl-N-[2-(1-methylpyrrolidin-2-yl)imidazo[1,2-a]pyridin-6-yl]-1H-1,2,3-benzotriazole-5-carboxamide]
150 to 1500 nM | 150 to 1500 nM | Cc1nn(C)c2cc(C(=O)Nc3cn4cc(C5CN(C)CCN5C)nc4cn3)ccc12 (single isomer, unassigned) [Example 67]
1500 to 20000 nM | 1500 to 20000 nM | Cc1nn(C)c2cc(C(=O)Nc3cn4cc([C@@H]5CCCN5C)nc4cn3)ccc12 (single isomer, unassigned) [Example 69]
150 to 1500 nM | 150 to 1500 nM | CCc1nn(C)c2cc(C(=O)Nc3cn4cc([C@H]5CCCN5C)nc4cn3)ccc12 [Example 72, 3-ethyl-1-methyl-N-{2-[(2R)-1-methylpyrrolidin-2-yl]imidazo[1,2-a]pyrazin-6-yl}-1H-indazole-6-carboxamide]
1500 to 20000 nM | 1500 to 20000 nM | Cc1nn(C)c2nc(C(=O)Nc3ccc4nc(C5CCCN5C)cn4c3)ccc12 (racemic) [Example 31, rac-1,3-dimethyl-N-[2-(1-methylpyrrolidin-2-yl)imidazo[1,2-a]pyridin-6-yl]-1H-pyrazolo[3,4-b]pyridine-6-carboxamide]
150 to 1500 nM | 150 to 1500 nM | Cc1nn(C)c2cc(C(=O)Nc3cn4cc([C@H]5CCCN5C)nc4c(C4CC4)n3)c(F)cc12 [Example 100, N-[8-cyclopropyl-2-[(2R)-1-methylpyrrolidin-2-yl]imidazo[1,2-a]pyrazin-6-yl]-5-fluoro-1,3-dimethyl-indazole-6-carboxamide]
1500 to 20000 nM | 1500 to 20000 nM | CN1CCCC1c1cn2cc(NC(=O)c3cnc(-c4ccccc4)o3)ccc2n1 (racemic) [Example 46, rac-N-[2-(1-methylpyrrolidin-2-yl)imidazo[1,2-a]pyridin-6-yl]-2-phenyl-1,3-oxazole-5-carboxamide]
150 to 1500 nM | 150 to 1500 nM | CN1CCCC1c1cn2cc(NC(=O)c3ccc4c(c3)c(C3CCCC3)nn4C)ccc2n1 (racemic) [Example 48, rac-3-cyclopentyl-1-methyl-N-[2-(1-methylpyrrolidin-2-yl)imidazo[1,2-a]pyridin-6-yl]-1H-indazole-5-carboxamide]
1500 to 20000 nM | 1500 to 20000 nM | COCCN1CCCC1c1cn2cc(NC(=O)c3ccc4c(C)nn(C)c4c3)ccc2n1 (racemic) [Example 62, rac-N-{2-[1-(2-methoxyethyl)pyrrolidin-2-yl]imidazo[1,2-a]pyridin-6-yl}-1,3-dimethyl-1H-indazole-6-carboxamide]
150 to 1500 nM | 1500 to 20000 nM | COc1cc2c(cnn2C)cc1C(=O)Nc1cn2cc([C@H]3CCCN3C)nc2cn1 [Example 96, 6-methoxy-1-methyl-N-{2-[(2R)-1-methylpyrrolidin-2-yl]imidazo[1,2-a]pyrazin-6-yl}indazole-5-carboxamide]

IC50 [1] | IC50 [2] | Compound
1500 to 20000 nM | 1500 to 20000 nM | CN1CCCC1c1cn2cc(NC(=O)c3ccc(-c4cncs4)cc3F)ccc2n1 (single isomer, unassigned) [Example 7]
150 to 1500 nM | 1500 to 20000 nM | CN1CCC[C@@H]1c1cn2cc(NC(=O)c3ccc4c(cnn4C)c3)nc(C3CC3)c2n1 [Example 99, N-[8-cyclopropyl-2-[(2R)-1-methylpyrrolidin-2-yl]imidazo[1,2-a]pyrazin-6-yl]-1-methyl-indazole-5-carboxamide]
1500 to 20000 nM | 1500 to 20000 nM | CN1CCCC1c1cn2cc(NC(=O)c3ccc4c(cnn4C)c3)ccc2n1 (single isomer, unassigned) [Example 59]
1500 to 20000 nM | 1500 to 20000 nM | CCN1CCCC1c1cn2cc(NC(=O)c3ccc4c(C)nn(C)c4c3)ncc2n1 (single isomer, unassigned) [Example 88, N-{2-[(rel-2S)-1-ethylpyrrolidin-2-yl]imidazo[1,2-a]pyrazin-6-yl}-1,3-dimethylindazole-6-carboxamide]
150 to 1500 nM | 150 to 1500 nM | CN1CCC[C@@H]1c1cn2cc(NC(=O)c3ccc4c(C5CC5)nn(C)c4c3)ncc2n1 [Example 71, 3-cyclopropyl-1-methyl-N-{2-[(2R)-1-methylpyrrolidin-2-yl]imidazo[1,2-a]pyrazin-6-yl}-1H-indazole-6-carboxamide]
150 to 1500 nM | 150 to 1500 nM | CN1CCCCC1c1cn2cc(NC(=O)c3ccc4c(cnn4C)c3)ccc2n1 (single isomer, unassigned) [Example 28]
1500 to 20000 nM | 1500 to 20000 nM | CN1CCCC1c1cn2cc(NC(=O)c3ccc4cc(F)ccc4c3)ccc2n1 (single isomer, unassigned) [Example 6]
150 to 1500 nM | 150 to 1500 nM | Cc1nc(-c2ccc(C(=O)Nc3ccc4nc(C5CCCN5C)cn4c3)cc2)cs1 (racemic) [Example 16, rac-4-(2-methyl-1,3-thiazol-4-yl)-N-[2-(1-methylpyrrolidin-2-yl)imidazo[1,2-a]pyridin-6-yl]benzamide]
150 to 1500 nM | 150 to 1500 nM | CC1CC(c2cn3cc(NC(=O)c4ccc5c(cnn5C)c4)ccc3n2)N(C)C1 (racemic) [Example 64, rac-N-[2-(1,4-dimethylpyrrolidin-2-yl)imidazo[1,2-a]pyridin-6-yl]-1-methyl-1H-indazole-5-carboxamide]
1500 to 20000 nM | > 20000 nM | CN1CCCC1c1cn2cc(NC(=O)c3ccc4ncccc4n3)ccc2n1 (racemic) [Example 10, rac-N-[2-(1-methylpyrrolidin-2-yl)imidazo[1,2-a]pyridin-6-yl]-1,5-naphthyridine-2-carboxamide]
1500 to 20000 nM | 1500 to 20000 nM | CN1CCCC1c1cn2cc(NC(=O)c3cnc4cc(Cl)ccc4c3)ccc2n1 (racemic) [Example 9, rac-7-chloro-N-[2-(1-methylpyrrolidin-2-yl)imidazo[1,2-a]pyridin-6-yl]quinoline-3-carboxamide]
< 150 nM | 150 to 1500 nM | CN1CCC[C@@H]1c1cn2cc(NC(=O)c3cc4cnn(C)c4cc3F)ncc2n1 [Example 101, 6-fluoro-1-methyl-N-[2-[(2R)-1-methylpyrrolidin-2-yl]imidazo[1,2-a]pyrazin-6-yl]indazole-5-carboxamide]
150 to 1500 nM | 1500 to 20000 nM | CN1CCCC1c1cn2cc(NC(=O)c3ccc(-c4ncon4)cc3)ccc2n1 (racemic) [Example 51, rac-N-[2-(1-methylpyrrolidin-2-yl)imidazo[1,2-a]pyridin-6-yl]-4-(1,2,4-oxadiazol-3-yl)benzamide]
150 to 1500 nM | 1500 to 20000 nM | CN1CCCC1c1cn2cc(NC(=O)c3ccn4cnnc4c3)ccc2n1 (racemic) [Example 33, rac-N-[2-(1-methylpyrrolidin-2-yl)imidazo[1,2-a]pyridin-6-yl]-[1,2,4]triazolo[4,3-alpyridine-7-carboxamide]
150 to 1500 nM | 1500 to 20000 nM | Cc1nn(C)c2cc(C(=O)Nc3cn4cc(C5CCCN5C)nc4cc3F)ccc12 (racemic) [Example 57, rac-N-[7-fluoro-2-(1-methylpyrrolidin-2-yl)imidazo[1,2-a]pyridin-6-yl]-1,3-dimethyl-1H-indazole-6-carboxamide]
1500 to 20000 nM | 1500 to 20000 nM | CC1CCC(c2cn3cc(NC(=O)c4ccc5c(cnn5C)c4)ccc3n2)N1C (racemic) [Example 63, rac-N-[2-(1,5-dimethylpyrrolidin-2-yl)imidazo[1,2-a]pyridin-6-yl]-1-methyl-1H-indazole-5-carboxamide]
150 to 1500 nM | 150 to 1500 nM | Cc1nc(NC(=O)c2cc3c(C)nc(C)n3cc2F)cn2cc([C@H]3CCCN3C)nc12 [Example 94, 6-fluoro-1,3-dimethyl-N-{8-methyl-2-[(2R)-1-methylpyrrolidin-2-yl]imidazo[1,2-a]pyrazin-6-yl}imidazo[1,5-a]pyridine-7-carboxamide]
